Data set [1] relates to ES2(ovarian) cells. Briefly: MTT assay ES2. Format: cell-based, human. The following applies: for viable cells by MTT units vs DMSO control: 24 hours. How it is done: MTT Assay. The procedure for MTT assay followed the method described by Carmichael et al. (1987) with modifications. The cells were seeded into a 96-well plate at concentration of 10,000/well for HTB-9, HeLa, H460, HCT116, T98G and OVCAR-3), 15,000/well for DU145, MCF-7, HepG2 and U2OS), and 40,000/well for K562 for 24 hours before drug-treatment. The cells were then exposed to the drugs for 48 hours (72 hours for HepG2 and U2OS, and 96 hours for MCF-7). After the drug-treatment, MTT (0.5 mg/mL) was added to cultures and incubated for an hour. The formazan (product of the reduction of tetrazolium by viable cells) formed and was dissolved with DMSO and the O.D. at 490 nm, and was measured by an ELISA reader. The MTT level of the cells before drug-treatment was also measured (T0). The % cell-growth (% G) is calculated as: % G=(TD−T0/TC−T0)×100(1), where TC or TD represents O.D. readings of control or drug-treated cells. When T0>TD, then the cytotoxicity (LC) expressed as % of the control is calculated as: % LC=(TD−T0/T0)×100(2).
Methods: ES2 cells were exposed to (i) Xanifolia-Y with concentrations of 40, 20, 10, 5, 2.5, and 1.25 ug/ml; or (ii) Paclitaxel with concentrations of […]; or (iii) Combined Xanifolia-Y and Paclitaxel with concentrations of each drug in same order (for example, 40 ug/ml Y plus 10 ng/ml T; 20 ug/ml Y plus 5 ng/ml T, etc. please see FIG. 28). Cells growth under these conditions was determined by the MTT assay.
(§1) Drug-treatment: cells cultures were replaced with fresh RPMI medium containing Xanifolia-Y (10 ug/ml final concentration) or DMSO (as control) at 0 hour. At 2, and 18 hour, aliquot of culture medium was taken out for Fibronectin determination (Western blot method). Cell viability at 18 hours was determined by MTT assay. Cultures were replaced with RPMI medium with MTT and incubated for an hour. The formation of formazan was dissolved in DMSO and OD at 570 nm was measured.
(In general: Tetrazolium dyes change colour on reduction, which living cells bring about.)

In data set [2] the test system is swelling of rats' feet induced by Carrageenin. Briefly: Carrageenin-induced swollen feet model.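 Further: percent increase in foot volume over pre-inflammation volume.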 The format is in vivo, SD rats. The following applies: positive control 10.0 mg/kg fed once. How it is done:
SD rats, male, weighing 163±18 g were used in the experiment. The tested animals are allowed to acclimate for a week. The rats drink water freely. The rats were randomly divided into 5 groups: control, positive control and 3 test groups, and each group had 8 rats. The dose for 3 groups of rats are 10, 20 and 40 mg/kg. Indometacin for the positive control is 10 mg/kg and fed once after modeling. The dose of CMC-Na for the control group is the same as each test group and fed into the stomach once a day before modeling for 5 days. The tested drug was fed into the stomach 10 minutes before the animal modeling (1 mL/100 g). The volumes of right foot of each rat were measured 0.5, 1, 2 and 4 hours before and after modeling. The volumes of the right hind feet were measured at a different time, 10 minutes after inflammation induced by subcutaneous injection (with syringe needle 7) of 0.05 mL of the 1% of Carrageenin/normal saline mixture into the feet. The Rate of swelling of the feet was calculated, compared with the controls and subject to a student t-test. Rate of swelling (E) (%)=Ltn−Lt0/Lt0×100% • Ltn: volume of foot after the inflammation • Lt0: volume of foot before the inflammation

Data set [3] concerns Fibronectin secretion from ES2 cells. Briefly: Fibronectin secretion (Western blot), ES2 cells. Format: cell-based, human. The following applies: for Fibronectin secreted into medium, % of DMSO control: 24 hours. The protocol:
Inhibition of Fibronectin secretion is physiological and the determination of its quantity is based on the following criteria: • 1. Fibronectin is secreted from viable cells. Only cell with over 85% viable cells after drug-treatment are employed in these experiments. The viable cells were determined by MTT assay. • 2. For comparison, the immuno-band intensity from each samples are normalized with cell mass. The cell mass was determined by the MTT assay and is assigned as a MTT unit for each cell sample.
Cells: ES2 cells were grew in T-25 flask with RPMI 1640 medium over night before drug-treatment. Drug-treatment: cells cultures were replaced with fresh RPMI medium with Xanifolia-Y (10 ug/ml final concentration) or DMSO (as control) at 0 hour. At 1, 2, 4, 8 and 24 hour, aliquot of culture medium was taken out for Fibronectin determination. Fibronectin was determined by Western blot with monoclonal antibody (SIGMA) specific to human Fibronectin only.
Drug-treatment: cells cultures were replaced with fresh RPMI medium containing Xanifolia-Y (10 ug/ml final concentration) or DMSO (as control) at 0 hour. At 4 hours (A) or 8 hour (B), culture medium was replaced with fresh culture medium without drug. At 2, 4, 8 and 24 hour, aliquot of culture medium was taken out for Fibronectin determination. Fibronectin (FN) was determined by Western blot with monoclonal antibody (SIGMA) specific only to human Fibronectin.
as §1
Cells and Drug-treatment: same as previous experiments. After 7 or 24 hours, aliquot of culture medium was taken out for Fibronectin determination (Western blot method). Cell viability at 24 hours was determined by MTT assay.
Cells: ES2 cells were grew in RPMI 1640 medium over night before drug-treatment. Drug-treatment: cells cultures were replaced with fresh RPMI medium containing DMSO (as control) [D]; Xanifolia-Y (10 ug/ml) [Y]; or Paclitaxel 10 or 50 ng/ml [T10, ro T50]. After 24 hours, aliquot of culture medium was taken out for Fibronectin determination (Western blot method). Cell viability at 24 hours was determined by MTT assay.
The amount of Fibronectin secreted by cells into medium was determined by Western blot assay. The amount of Fibronectin secreted per cells basis was determined by dividing the Western-band intensity with the MTT unit.
Western Blot: Spent culture medium (0.6 ml) was mixed with SDS sample buffer (0.2 ml), boiled for 3 minutes before loading to SDS gel. Samples (60 ul/lane) were applied to a 6% SDS gel and electrophoresis was conducted with 100 volts for 2 hours. Protein was transferred to a nitrocellulose paper electrophoretically (30 min at 100 volts). The Western blot was incubated with the first antibody (mouse anti-FN, specific to human FN, SIGMA F0916) and second antibody (Anti-mouse IgG AP conjugated, Promega S3721). The immunobands were developed with BCIP/NBT color development system (Promega S3771).

The test system of data set [4] is Fibronectin secretion from liver HepG2 cells. As to the kind of experiment: Fibronectin secretion (Western blot), HepG2 cells. Format: cell-based, human. To be noted: HepG2 cells, 10 ug/ml. In general terms: In western blotting, separated proteins are transferred to a membrane and probed.

≈ marks a conversion by molar mass, not a printed value. Like-named read-outs stand apart in the source and are kept apart here.

The term IC50 denotes the concentration needed to halve the response being measured. Turning to `CC1(C)CC2C3=CCC4C5(C)CCC(OC6OC(C(=O)O)C(O)C(OC7OCC(O)C(O)C7O)C6OC6OC(CO)C(O)C(O)C6O)C(C)(C)C5CCC4(C)C3(C)CC(O)C2(CO)C(O)C1OC1OCC(OC(=O)c2ccccc2)C(OC(=O)c2ccccc2)C1O` [Ba9, 3-O-[β-D-galactopyranosyl(1→2)]-β-D-xylopyranosyl (1→3)-β-D-glucuronopyranosyl-21-O-[3,4-dibenzoyl-β-D-xylopyranosyl]-3β, 15α, 21β, 22α, 28-pentahydroxyolean-12-ene], the concentration for half-maximal inhibition (IC50) in data set [1] (ES2 cells) worked out at 12 µg/mL (≈ 9.22 µM).
With `COc1ccc2c(c1)c(CC(=O)O)c(C)n2C(=O)c1ccc(Cl)cc1` [Indometacin, reference compound], the “Swelling rate after administration (%)” value worked out at 11.8% in data set [2] (0.5 hour), 14.7% in data set [2] (1 hour), 12.8% in data set [2] (2 hours) and 10.7% in data set [2] (4 hours).
Compound `CC=C(C)C(=O)OC1C(OC(=O)C=Cc2ccccc2)C23C(O)CC4(C)C5(C)CCC6C(C)(C)C(OC7OC(C(=O)O)C(O)C(OC8OC(CO)C(O)C(O)C8OC8OC(C)C(O)C(O)C8OC8OC(C)C(O)C(O)C8O)C7OC7OC(CO)C(O)C(O)C7O)CCC6(C)C5CCC4(OC2O)C3CC1(C)C` (stereo not shown) [Mb1] registered an IC50 in data set [1] (ES2 cells) of 8 µg/mL (≈ 5.29 µM).
Still for that read-out and setting: under `CC1OC(OC2C(OC3C(OC4C(O)C(C(=O)O)OC(OC5CCC6(C)C(CCC7(C)C6CCC68OC(O)C9(C(O)CC76C)C(OC(=O)C=Cc6ccccc6)C(OC(=O)c6ccccc6)C(C)(C)CC98)C5(C)C)C4OC4OC(CO)C(O)C(O)C4O)OC(CO)C(O)C3O)OC(C)C(O)C2O)C(O)C(O)C1O` (stereo not shown) [Mb3] stands 8 µg/mL (≈ 5.22 µM); under `CC1OC(OC2C(OC3C(OC4C(O)C(C(=O)O)OC(OC5CCC6(C)C(CCC7(C)C6CCC68OC(O)C9(C(O)CC76C)C(OC(=O)C=Cc6ccccc6)C(OC(=O)c6ccccc6)C(C)(C)CC98)C5(C)C)C4OC4OC(CO)C(O)C(O)C4O)OC(CO)C(O)C3O)OC(C)C(O)C2O)C(O)C(O)C1O` (stereo not shown) [Mb4], 15 µg/mL (≈ 9.78 µM); under `CC=C(C)C(=O)OC1C(OC(=O)c2ccccc2)C(C)(C)CC2C13C(O)CC1(C)C4(C)CCC5C(C)(C)C(OC6OC(C(=O)O)C(O)C(OC7OC(CO)C(O)C(O)C7OC7OC(C)C(O)C(O)C7OC7OC(C)C(O)C(O)C7O)C6OC6OC(CO)C(O)C(O)C6O)CCC5(C)C4CCC21OC3O` (stereo not shown) [Mb6], 10 µg/mL (≈ 6.73 µM).
In the case of `CC1O[C@@H](OC2[C@H](OC3[C@H](O[C@H]4C(O[C@@H]5OC(CO)[C@H](O)[C@@H](O)C5O)[C@H](O[C@H]5CC[C@@]6(C)C(CC[C@]7(C)C6CC[C@]68O[C@H](O)[C@]9(C6CC(C)(C)[C@@H](OC(=O)c6ccccc6)[C@@H]9OC(=O)C=Cc6ccccc6)[C@H](O)[C@H](O)[C@]87C)[C@@]5(C)CO)OC(C(=O)O)[C@H]4O)OC(CO)[C@H](O)[C@H]3O)OC(C)[C@H](O)[C@@H]2O)C(O)[C@@H](O)[C@H]1O` (stereo partly shown) [Mb8], in data set [1] (ES2 cells), the IC50 was 20 µg/mL (≈ 12.8 µM).
Regarding `CC(=O)O[C@H]1C(=O)[C@@]2(C)[C@H]([C@H](OC(=O)c3ccccc3)[C@]3(O)C[C@H](OC(=O)[C@H](O)[C@@H](NC(=O)c4ccccc4)c4ccccc4)C(C)=C1C3(C)C)[C@]1(OC(C)=O)CO[C@@H]1C[C@@H]2O` [Paclitaxel, reference compound], the “Fibronectin secreted into medium, % of DMSO control” value in data set [3] (ES2 cells, 10 ng/ml) worked out at 105%; in data set [3] (ES2 cells, 50 ng/ml), 97%. Besides, in data set [3] (ES2 cells, 10 to 50 ng/ml), the “inhibition of Fibronectin secretion” value was “no inhibition”. The “viable cells by MTT units vs DMSO control” value in data set [1] (ES2, 10 ng/ml) was 94%; in data set [1] (ES2, 50 ng/ml) it was 91%. The 50% inhibitory concentration (IC50) came to 0.00125 µg/mL (≈ 0.00146 µM) in data set [1] (ES2 cells, used singly); 0.000625 µg/mL in data set [1] (Homo sapiens, ES-2, ES2 cells, combined with Xanifolia-Y, read-out: IC50 value for Paclitaxel when both drugs were used); 0.0015 µg/mL (≈ 0.00176 µM) in data set [1] (Homo sapiens, ES-2, ES2 cells, used singly, read-out: IC50).
The term inhibition denotes the percentage by which the read-out fell short of the control. For the compound `C/C=C(/C)C(=O)O[C@H]1[C@H](OC(=O)/C(C)=C\C)[C@@]2(CO)C(CC1(C)C)C1=CCC3[C@@]4(C)CC[C@H](O[C@@H]5OC(C(=O)O)[C@@H](O)C(O)C5O[C@@H]5OC(CO)[C@H](O)C(O)C5O)C(C)(C)C4CC[C@@]3(C)[C@]1(C)[C@@H](O)[C@H]2O` (stereo partly shown) [Xanifolia Y5], in data set [3] (Homo sapiens, ES-2, ES2 cells, 10 ug/ml), the inhibition at 10 µg/mL turned out to be 68%. Further, the “% inhibition of Fibronectin secretion” value in data set [4] is “have inhibition effect”.
For the compound `CC=C(C)C(=O)OC1C(OC(=O)c2ccccc2)C2(CO)C(CC1(C)C)C1=CCC3C4(C)CCC(OC5OC(C(=O)O)C(O)C(OC6OC(CO)C(O)C6O)C5OC5OC(CO)C(O)C(O)C5O)C(C)(C)C4CCC3(C)C1(C)C(O)C2O` [Xanifolia Z4, 3-O-[β-D-galactopyranosyl(1→2)]-α-L-arabinofuranosyl(1→3)-β-D-glucuronopyranosyl-21-O-angeloyl, 22-O-benzoyl-3β, 15α, 16α, 21β, 22α, 28-hexahydroxyolean-12-ene], the concentration for half-maximal inhibition (IC50) in data set [1] (ES2 cells) was 20 µg/mL (≈ 17.2 µM).
For `C/C=C(/C)C(=O)O[C@H]1[C@H](OC(=O)/C(C)=C/C)[C@@]2(CO)C(CC1(C)C)C1=CCC3[C@@]4(C)CC[C@H](O[C@@H]5OC(C(=O)O)[C@@H](O)C(O[C@@H]6OC[C@@H](O)C(O)C6O)C5O[C@@H]5OC(CO)[C@H](O)C(O)C5O)C(C)(C)C4CC[C@@]3(C)[C@]1(C)C[C@H]2O` (stereo partly drawn) [Xanifolia Z12, 3-O-[β-D-galactopyranosyl(1→2)]-β-D-xylopyranosyl (1→3)-β-D-glucuronopyranosyl-21-O-angeloyl, 22-O-tigloyl-3β, 16α, 21β, 22α, 28-pentahydroxyolean-12-ene], the IC50 in data set [1] (Homo sapiens, ES-2) was determined as 16 µg/mL (≈ 14.2 µM).
